Test results as given in ChEMBL document CHEMBL4825672, “Marine Bile Natural Products as Agonists of the TGR5 Receptor” (J Nat Prod, 2021).
Calls of active or inactive are those of the source. No cut-off for these calls is given here.

Columns and labels:
[1] = tested on: HEK293; assay: Cytotoxicity against human HEK293 cells transfected with TGR5 assessed as reduction in cell viability at 1 mM measured after 2.5 hrs by MTS assay; type: cell-based; conditions: hek293, 2.5 h, 1000 µM
[2] = molecular target: T1, G-protein coupled bile acid receptor 1 (Homo sapiens) (UniProt Q8TDU6); assay: Agonist activity at TGR5 (unknown origin) transfected in HEK293 cells assessed as increase in intracellular calcium level in absence of extracellular calcium by Fura-2AM dye based fluorometric analysis; type: functional, cell-based; conditions: filed as agonist, dose 0.5-0.67 mM
T1 sequence (whole entry): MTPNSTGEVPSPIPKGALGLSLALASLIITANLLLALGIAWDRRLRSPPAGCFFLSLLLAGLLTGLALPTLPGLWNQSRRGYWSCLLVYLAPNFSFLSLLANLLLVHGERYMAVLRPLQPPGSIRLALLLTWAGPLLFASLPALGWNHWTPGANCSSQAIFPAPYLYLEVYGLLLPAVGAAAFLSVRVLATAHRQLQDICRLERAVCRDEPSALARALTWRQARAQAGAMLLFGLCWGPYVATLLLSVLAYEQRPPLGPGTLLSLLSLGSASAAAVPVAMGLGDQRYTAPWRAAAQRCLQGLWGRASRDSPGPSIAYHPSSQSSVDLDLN

[3] = molecular target: T1, G-protein coupled bile acid receptor 1 (Homo sapiens); assay: Agonist activity at TGR5 (unknown origin) transfected in HEK293 cells assessed as increase in intracellular calcium level at 0.5 to 0.67 mM in presence of Galphaq inhibitor, UBO-QIC and in absence of extracellular calcium by Fura-2AM dye based fluorometric analysis; type: functional, cell-based; conditions: dose 0.5-0.67 mM
[4] = tested on: HEK293; assay: Induction of intracellular calcium level in human HEK293 cells at 0.5 to 0.67 mM in absence of extracellular calcium by Fura-2AM dye based fluorometric analysis; type: functional, cell-based; conditions: dose 0.5-0.67 mM
[5] = tested on: HEK293; assay: Induction of intracellular calcium level in human HEK293 cells at 1 mM in absence of extracellular calcium by Fura-2AM dye based fluorometric analysis; type: functional, cell-based
[6] = molecular target: T1, G-protein coupled bile acid receptor 1 (Homo sapiens); assay: Agonist activity at TGR5 (unknown origin) transfected in HEK293 cells assessed as increase in intracellular calcium level at 1 mM in presence of Galphaq inhibitor, UBO-QIC and in absence of extracellular calcium by Fura-2AM dye based fluorometric analysis; type: functional, cell-based
[7] = tested on: HEK293; assay: Cytotoxicity against human HEK293 cells transfected with TGR5 assessed as reduction in cell viability at 0.67 mM measured after 2.5 hrs by MTS assay; type: cell-based; conditions: hek293, 2.5 h, 670 µM
[8] = tested on: HEK293; assay: Cytotoxicity against human HEK293 cells transfected with TGR5 assessed as reduction in cell viability at 0.33 to 0.5 mM measured after 2.5 hrs by MTS assay; type: cell-based; conditions: hek293, 2.5 h, 500 µM, dose 0.33-0.5 mM
[9] = molecular target: T1, G-protein coupled bile acid receptor 1 (Homo sapiens); assay: Agonist activity at TGR5 (unknown origin) transfected in HEK293 cells assessed as increase in intracellular calcium level at 0.1 to 0.33 mM in absence of extracellular calcium by Fura-2AM dye based fluorometric analysis; type: functional, cell-based; conditions: filed as agonist, dose 0.1-0.33 mM
[10] = tested on: HEK293; assay: Induction of intracellular calcium level in human HEK293 cells at 0.1 to 0.33 mM in absence of extracellular calcium by Fura-2AM dye based fluorometric analysis; type: functional, cell-based; conditions: dose 0.1-0.33 mM
[11] = molecular target: T1, G-protein coupled bile acid receptor 1 (Homo sapiens); assay: Agonist activity at TGR5 (unknown origin) transfected in HEK293 cells assessed as increase in intracellular calcium level at 0.33 mM in presence of Galphaq inhibitor, UBO-QIC and in absence of extracellular calcium by Fura-2AM dye based fluorometric analysis; type: functional, cell-based
[12] = tested on: HEK293; assay: Induction of intracellular calcium level in human HEK293 cells at 0.33 mM in presence of Galphaq inhibitor, UBO-QIC and in absence of extracellular calcium by Fura-2AM dye based fluorometric analysis; type: functional, cell-based
[13] = molecular target: T1, G-protein coupled bile acid receptor 1 (Homo sapiens); assay: Agonist activity at TGR5 (unknown origin) transfected in HEK293 cells assessed as increase in intracellular calcium level at 0.1 mM in presence of Galphaq inhibitor, UBO-QIC and in absence of extracellular calcium by Fura-2AM dye based fluorometric analysis; type: functional, cell-based; conditions: filed as agonist
[14] = tested on: HEK293; assay: Induction of intracellular calcium level in human HEK293 cells at 0.1 mM in presence of Galphaq inhibitor, UBO-QIC and in absence of extracellular calcium by Fura-2AM dye based fluorometric analysis; type: functional, cell-based

C[C@H](CC[C@H](O)C(CO)CO)[C@H]1CC[C@H]2[C@@H]3[C@H](O)C[C@@H]4C[C@H](O)CC[C@]4(C)[C@H]3C[C@H](O)[C@]12C
Activity [1]: Toxic | Activity [2]: Dose-Dependent Effect | Activity [3]: inactive | Activity [4]: inactive

C[C@H](CCC(=O)O)[C@H]1CC[C@H]2[C@@H]3[C@@H](O)C[C@@H]4C[C@H](O)CC[C@]4(C)[C@H]3CC[C@]12C [URSODIOL]
Activity [1]: Non-Toxic | Activity [5]: inactive

C[C@H](CC[C@H](O)C(CO)COS(=O)(=O)O)[C@H]1CC[C@H]2[C@@H]3[C@H](O)C[C@@H]4C[C@H](O)CC[C@]4(C)[C@H]3C[C@H](O)[C@]12C (some centres not stated)
Activity [1]: Non-Toxic | Activity [5]: inactive | Activity [6]: inactive

C[C@H](CCC(=O)O)[C@H]1CC[C@H]2[C@@H]3CC[C@@H]4C[C@H](O)CC[C@]4(C)[C@H]3C[C@H](O)[C@]12C [DEOXYCHOLIC ACID]
Activity [7]: Toxic | Activity [8]: Toxic | Activity [9]: Dose-Dependent Effect | Activity [10]: Dose-Dependent Effect | Activity [11]: inactive | Activity [12]: inactive | Activity [13]: Active | Activity [14]: Active
